Data from patent US20260250270A1, “Compound Used as Kinase Inhibitor and Use Thereof” (TYK MEDICINES, INC., priority 2022, published 2026).

Key:
PC9 = experiment: Cell proliferation inhibition (CellTiter-Glo) on cell line PC9; format: cell-based; settings: Homo sapiens, PC-9
Description: (§1) The cell lines NCI-H1975 and PC9 selected for the experiments were provided by Sino-American Guanke Biotechnology (Beijing) Co. and were validated prior to use in this study.
(§2) A 10× stock of the compound to be tested was prepared for use, with 9 concentrations in 4-fold gradient dilution, diluted from 10 μM.
(§3) The logarithmic growth phase cell suspension was inoculated into a 96-well culture plate with 90 μL volume per well (2000 cells/well). 10 μL of 10× Compound to be tested was added to the plate according to the plate spreading diagram, and then mixed well. The plate was incubated in a 5% CO2 incubator at 37° C. The proliferation inhibitory activity of the compound was determined by the CellTiter-Glo method. Cell proliferation inhibition rate (Inhibition Rate) data were plotted using GraphPad Prism 8.0 software for cell viability curves and IC50 values were calculated.

EGFR exon 20ins = settings: advanced non-small cell lung cancer; cited from earlier work
[1] = molecular target: Ba/F3-HER2-A775-G776 ins YVMA (Homo sapiens, UniProt P04626, DUP772-775, cells depend on it); experiment: Cell proliferation inhibition (CellTiter-Glo), HER2 exon 20 insertion engineered cells; format: cell-based; settings: 72 h, CellTiter-Glo; read-out: IC50, Ba/F3-HER2-A775-G776ins YVMA
Description: (§4) The selected engineering cells Ba/F3-FL-EGFR-V769-D770 ins ASV, Ba/F3-FL-EGFR-D770-N771 ins SVD, Ba/F3-FL-EGFR-H773-V774 ins NPH, Ba/F3-FL-EGFR-A763-Y764 ins FQEA, Ba/F3-HER2-A775-G776 ins YVMA were provided by Hefei PreceDo Biomedical Technology Co., LTD and were validated prior to use in this study.
(§5) A 20× stock of the compound to be tested was prepared for use, with 9 concentrations in 3-fold gradient dilution, diluted from 1 μM.
(§6) The logarithmic growth phase cell suspension was inoculated into 96-well white cell culture plates with 95 μL volume per well (2000 cells/well). 5 μL of 20× Compound to be tested was added to the plate containing 95 μL of cell suspension according to the plate spreading diagram, and then mixed well. The plate was incubated in a 5% CO2 incubator at 37° C. for 72 h. The proliferation inhibition activity of the compounds was determined by the CellTiter-Glo method, and the fluorescence value per well, RLU, was obtained from the SpectraMax Paradigm reading. Inhibition Rate data were processed using the following formula: Inhibition Rate (Inh %)=100−(RLU compound−RLU blank)/(RLU control−RLU blank)*100%. The cell viability corresponding to different concentrations of compounds was calculated in EXCEL, and then GraphPad Prism software was used to plot the cell viability curve and calculate the IC50 value.

[2] = molecular target: Ba/F3-FL-EGFR-H773-V774 ins NPH (Homo sapiens, UniProt P00533, DUP771-773, cells depend on it); experiment: Cell proliferation inhibition (CellTiter-Glo), EGFR exon 20 insertion engineered cells; format: cell-based; settings: 72 h, read-out: IC50, Ba/F3-FL-EGFR H773-V774ins NPH
Description: as §4, §5, §6

[3] = molecular target: Ba/F3-FL-EGFR-D770-N771 ins SVD (Homo sapiens, UniProt P00533, DUP768-770, cells depend on it); experiment: as above; format: cell-based; settings: 72 h, read-out: IC50, Ba/F3-FL-EGFR D770-N771ins SVD
Description: as §4, §5, §6

[4] = molecular target: Ba/F3-FL-EGFR-A763-Y764 ins FQEA (Homo sapiens, UniProt P00533, INS763FQEA, cells depend on it); experiment: as above; format: cell-based; settings: 72 h, read-out: IC50, Ba/F3-FL-EGFR A763-Y764ins FQEA
Description: as §4, §5, §6

[5] = molecular target: Ba/F3-FL-EGFR-V769-D770 ins ASV (Homo sapiens, UniProt P00533, DUP767-769, cells depend on it); experiment: as above; format: cell-based; settings: 72 h, read-out: IC50, Ba/F3-FL-EGFR V769-D770ins ASV
Description: as §4, §5, §6

NCI-H1975 = experiment: Cell proliferation inhibition (CellTiter-Glo) on cell line NCI-H1975; format: cell-based; settings: Homo sapiens
Description: as §1, §2, §3

[6] = tested on: Lung cancer LU0387PDX model; experiment: Pharmacodynamic study on lung cancer LU0387PDX model; format: in vivo, mice; settings: LU0387 model, 30 mg/kg, P.O, QD * 13 days
From the text: Lung cancer LU0387PDX model is a commonly used xenograft tumor model from Crown Bioscience, the experimental situation of this model is described as follows: after euthanasia of tumor-bearing mice, the tumor blocks were dissected out in aseptic condition, the blocks were cleaned to remove blood stains and connective tissues and necrotic parts, and the tumors were cut into small pieces of 2*2*2 mm^3, and inoculated with an adapter needle in sterilized experimental mice subcutaneously on the right dorsal side. Tumor growth was regularly observed, and when the tumors grew to an average volume of 100~200 mm^3, mice were randomly grouped according to tumor size and body weight for drug administration. Before the start of drug administration, all animals were weighed and the tumor volume was measured with vernier calipers. Mice were randomly grouped according to tumor volume to ensure that tumor volumes were similar between groups. Three mice in each group were administered orally once daily, and the inoculation site was observed after administration. Tumor volume and mouse body weight were measured twice a week. The experimental design and results were shown in Table 9, wherein P.O referred to administered orally; QD: once a day; TGI (Tumor volume inhibition rate)=(1-Tumor weight of the treatment group/Tumor weight of the control group)*100%.

[7] = tested on: exon 20 insertion mutations in EGFR and HER2; settings: reported clinical trial results; cited from earlier work

Chain of Ba/F3-FL-EGFR-D770-N771 ins SVD (P00533 with tags, fused parts or gaps DUP768-770): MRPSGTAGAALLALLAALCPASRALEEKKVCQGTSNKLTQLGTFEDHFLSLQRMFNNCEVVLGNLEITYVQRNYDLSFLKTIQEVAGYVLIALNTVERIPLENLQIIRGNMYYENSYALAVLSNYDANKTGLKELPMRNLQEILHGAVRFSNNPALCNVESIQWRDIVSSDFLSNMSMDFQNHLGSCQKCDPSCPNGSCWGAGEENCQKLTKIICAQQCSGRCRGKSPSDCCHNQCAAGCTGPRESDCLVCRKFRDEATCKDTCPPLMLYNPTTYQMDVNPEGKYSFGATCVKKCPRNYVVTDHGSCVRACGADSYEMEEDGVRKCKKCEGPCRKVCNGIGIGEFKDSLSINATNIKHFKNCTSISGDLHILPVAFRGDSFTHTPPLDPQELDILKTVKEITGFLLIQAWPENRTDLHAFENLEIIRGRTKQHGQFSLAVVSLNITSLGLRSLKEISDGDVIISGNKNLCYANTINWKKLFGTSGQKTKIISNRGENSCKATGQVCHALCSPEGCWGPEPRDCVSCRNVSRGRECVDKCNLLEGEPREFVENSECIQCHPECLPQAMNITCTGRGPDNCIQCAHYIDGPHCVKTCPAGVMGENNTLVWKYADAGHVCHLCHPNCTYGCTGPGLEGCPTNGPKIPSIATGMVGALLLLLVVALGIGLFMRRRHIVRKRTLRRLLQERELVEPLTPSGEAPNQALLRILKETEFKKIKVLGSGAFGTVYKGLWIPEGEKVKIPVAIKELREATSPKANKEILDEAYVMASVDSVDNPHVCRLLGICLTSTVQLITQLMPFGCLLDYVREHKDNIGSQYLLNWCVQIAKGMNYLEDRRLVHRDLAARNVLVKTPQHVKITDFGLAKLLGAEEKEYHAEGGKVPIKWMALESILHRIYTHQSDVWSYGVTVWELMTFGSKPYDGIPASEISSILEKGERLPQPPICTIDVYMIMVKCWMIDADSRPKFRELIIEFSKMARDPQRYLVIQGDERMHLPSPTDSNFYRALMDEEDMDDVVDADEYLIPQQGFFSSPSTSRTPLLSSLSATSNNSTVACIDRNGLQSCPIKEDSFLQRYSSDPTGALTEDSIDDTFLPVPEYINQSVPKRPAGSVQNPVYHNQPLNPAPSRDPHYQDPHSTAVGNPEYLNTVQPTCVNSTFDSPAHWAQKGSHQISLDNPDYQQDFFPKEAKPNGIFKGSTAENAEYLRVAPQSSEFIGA
Chain of Ba/F3-FL-EGFR-V769-D770 ins ASV (P00533 with tags, fused parts or gaps DUP767-769): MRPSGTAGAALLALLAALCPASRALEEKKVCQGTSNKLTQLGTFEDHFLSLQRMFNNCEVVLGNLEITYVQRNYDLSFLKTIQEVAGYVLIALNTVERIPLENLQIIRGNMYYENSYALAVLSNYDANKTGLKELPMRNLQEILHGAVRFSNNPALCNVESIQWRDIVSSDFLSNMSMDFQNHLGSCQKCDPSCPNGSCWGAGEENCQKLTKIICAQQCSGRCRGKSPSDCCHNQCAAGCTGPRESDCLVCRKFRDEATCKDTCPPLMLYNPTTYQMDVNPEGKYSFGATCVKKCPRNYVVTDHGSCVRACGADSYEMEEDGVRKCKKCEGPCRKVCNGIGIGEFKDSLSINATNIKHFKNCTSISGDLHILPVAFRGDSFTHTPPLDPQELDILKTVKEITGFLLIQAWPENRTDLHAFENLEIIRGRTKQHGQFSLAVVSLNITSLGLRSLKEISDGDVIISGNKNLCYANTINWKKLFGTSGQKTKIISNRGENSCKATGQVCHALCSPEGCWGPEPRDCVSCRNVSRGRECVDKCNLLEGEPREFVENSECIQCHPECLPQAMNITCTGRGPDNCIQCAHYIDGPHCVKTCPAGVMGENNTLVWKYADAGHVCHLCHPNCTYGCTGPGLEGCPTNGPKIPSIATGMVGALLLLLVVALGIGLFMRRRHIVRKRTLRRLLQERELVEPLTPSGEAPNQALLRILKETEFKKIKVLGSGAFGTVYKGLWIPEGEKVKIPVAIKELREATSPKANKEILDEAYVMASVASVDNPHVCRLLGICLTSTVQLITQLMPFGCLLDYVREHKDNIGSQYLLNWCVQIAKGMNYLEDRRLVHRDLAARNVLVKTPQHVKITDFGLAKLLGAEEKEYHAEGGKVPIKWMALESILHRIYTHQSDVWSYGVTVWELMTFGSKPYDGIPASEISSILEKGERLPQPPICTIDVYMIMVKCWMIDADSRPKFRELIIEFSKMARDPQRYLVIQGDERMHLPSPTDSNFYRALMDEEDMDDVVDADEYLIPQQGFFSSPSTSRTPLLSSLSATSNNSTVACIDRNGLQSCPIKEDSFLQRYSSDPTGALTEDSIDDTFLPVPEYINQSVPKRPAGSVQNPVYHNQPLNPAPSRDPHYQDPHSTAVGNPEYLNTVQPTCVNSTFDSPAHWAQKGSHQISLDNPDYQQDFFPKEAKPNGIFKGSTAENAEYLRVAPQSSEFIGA
Chain of Ba/F3-FL-EGFR-H773-V774 ins NPH (P00533 with tags, fused parts or gaps DUP771-773): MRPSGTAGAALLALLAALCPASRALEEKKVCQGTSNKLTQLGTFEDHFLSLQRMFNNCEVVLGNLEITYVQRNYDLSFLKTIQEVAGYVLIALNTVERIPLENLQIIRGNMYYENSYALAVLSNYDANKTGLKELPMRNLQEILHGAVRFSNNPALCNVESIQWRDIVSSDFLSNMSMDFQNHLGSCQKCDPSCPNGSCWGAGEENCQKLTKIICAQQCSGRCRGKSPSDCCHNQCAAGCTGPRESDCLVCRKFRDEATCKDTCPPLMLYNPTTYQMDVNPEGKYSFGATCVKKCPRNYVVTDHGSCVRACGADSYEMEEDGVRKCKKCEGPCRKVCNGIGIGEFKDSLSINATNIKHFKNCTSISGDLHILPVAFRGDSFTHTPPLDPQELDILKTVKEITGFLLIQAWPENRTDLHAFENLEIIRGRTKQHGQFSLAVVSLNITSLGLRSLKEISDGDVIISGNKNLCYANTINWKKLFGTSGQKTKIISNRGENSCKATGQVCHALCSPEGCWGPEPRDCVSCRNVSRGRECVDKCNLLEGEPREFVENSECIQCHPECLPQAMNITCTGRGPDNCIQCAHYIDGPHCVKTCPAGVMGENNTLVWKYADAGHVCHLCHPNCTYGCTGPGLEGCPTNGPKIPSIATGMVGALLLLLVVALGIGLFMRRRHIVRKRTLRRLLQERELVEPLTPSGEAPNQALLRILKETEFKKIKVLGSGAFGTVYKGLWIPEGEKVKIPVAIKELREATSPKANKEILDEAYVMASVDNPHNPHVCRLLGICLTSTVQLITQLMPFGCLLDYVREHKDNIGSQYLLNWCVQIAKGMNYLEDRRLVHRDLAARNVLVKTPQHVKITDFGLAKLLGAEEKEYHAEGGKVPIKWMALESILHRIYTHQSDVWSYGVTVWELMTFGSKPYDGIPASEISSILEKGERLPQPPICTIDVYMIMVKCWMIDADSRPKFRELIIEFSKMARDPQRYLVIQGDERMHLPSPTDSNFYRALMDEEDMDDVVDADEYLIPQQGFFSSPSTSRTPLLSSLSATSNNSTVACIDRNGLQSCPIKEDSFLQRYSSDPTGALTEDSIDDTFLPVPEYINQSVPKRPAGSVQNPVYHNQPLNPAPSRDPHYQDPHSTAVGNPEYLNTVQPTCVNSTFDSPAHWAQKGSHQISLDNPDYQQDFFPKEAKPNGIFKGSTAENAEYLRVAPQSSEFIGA
Chain of Ba/F3-FL-EGFR-A763-Y764 ins FQEA (P00533 with tags, fused parts or gaps INS763FQEA): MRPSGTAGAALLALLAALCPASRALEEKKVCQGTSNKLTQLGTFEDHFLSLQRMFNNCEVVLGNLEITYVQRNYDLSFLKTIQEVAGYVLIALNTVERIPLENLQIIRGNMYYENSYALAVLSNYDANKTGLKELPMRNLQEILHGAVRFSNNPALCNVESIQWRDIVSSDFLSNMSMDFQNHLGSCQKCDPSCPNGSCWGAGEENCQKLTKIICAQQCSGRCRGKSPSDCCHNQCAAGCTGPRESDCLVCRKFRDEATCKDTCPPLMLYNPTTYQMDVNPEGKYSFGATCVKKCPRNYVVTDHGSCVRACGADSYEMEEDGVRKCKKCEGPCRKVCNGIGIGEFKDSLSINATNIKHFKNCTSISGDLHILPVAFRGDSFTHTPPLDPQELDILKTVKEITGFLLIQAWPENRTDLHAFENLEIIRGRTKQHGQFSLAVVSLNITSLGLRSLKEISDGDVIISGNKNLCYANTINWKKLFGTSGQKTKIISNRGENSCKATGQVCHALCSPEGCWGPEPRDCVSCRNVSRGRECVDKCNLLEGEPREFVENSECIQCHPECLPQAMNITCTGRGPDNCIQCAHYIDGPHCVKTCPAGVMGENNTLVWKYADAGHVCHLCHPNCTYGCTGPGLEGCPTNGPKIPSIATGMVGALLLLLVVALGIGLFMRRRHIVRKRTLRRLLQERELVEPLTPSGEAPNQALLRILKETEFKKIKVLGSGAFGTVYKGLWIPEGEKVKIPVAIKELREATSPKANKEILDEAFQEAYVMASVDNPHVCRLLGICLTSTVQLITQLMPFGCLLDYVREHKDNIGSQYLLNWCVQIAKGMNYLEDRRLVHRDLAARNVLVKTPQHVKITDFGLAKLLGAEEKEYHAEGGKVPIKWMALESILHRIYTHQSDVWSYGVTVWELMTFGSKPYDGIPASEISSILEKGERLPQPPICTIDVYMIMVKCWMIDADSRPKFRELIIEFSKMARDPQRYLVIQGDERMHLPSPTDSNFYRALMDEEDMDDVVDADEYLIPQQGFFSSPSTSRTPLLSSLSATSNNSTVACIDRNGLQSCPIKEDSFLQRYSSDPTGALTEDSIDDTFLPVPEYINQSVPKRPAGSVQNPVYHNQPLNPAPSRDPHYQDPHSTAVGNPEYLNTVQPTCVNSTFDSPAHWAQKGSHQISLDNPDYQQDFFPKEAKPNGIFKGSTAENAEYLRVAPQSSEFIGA

IC50 (PC9)	GI50 [1]	GI50 [2]	GI50 [3]	GI50 [4]	GI50 [5]	IC50 (NCI-H1975)	Structure (SMILES)	objective remission rate (EGFR exon 20ins)	TGI (%) [6]	objective remission rate [7]
30 to 100 nM	30 to 100 nM	30 to 100 nM	30 to 100 nM	≤ 30 nM	≤ 30 nM	≤ 30 nM	C=CC(=O)Nc1cc(Nc2nccc(Nc3cc(Cl)c(F)cc3C(C)(C)O)n2)c(OC)cc1N1CC[C@@H](N(C)C)C1 [DZD9008, reference compound]	40%	32.55%	–
≤ 30 nM	≤ 30 nM	≤ 30 nM	≤ 30 nM	≤ 30 nM	≤ 30 nM	≤ 30 nM	C=CC(=O)Nc1cc(Nc2ncc(C(=O)OC(C)C)c(-c3cn(C)c4ccccc34)n2)c(OC)cc1N(C)CCN(C)C [TAK-788, reference compound]	–	68.03%	43%
